The values that follow come from ChEMBL document CHEMBL1201862, “PubChem BioAssay data set” (2004).

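Grown in 96-well plates, cells were treated for 48 hours with each compound at five concentrations. Insufficient inhibition: endpoint recorded as highest concentration tested. At the GI50, growth is halved.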 Activity calls are given as the source filed them. Rule as the data show it: active = GI50 up to about 1.1 µM and inactive = higher.

Test systems include KM12; MDA-N; MDA-MB-231; MCF7; OVCAR-8; HOP-62; OVCAR-3; SK-OV-3; Hs-578T; CAKI-1; HCT-116; SF-539; SK-MEL-28; NCI-H23; SNB-19; UACC-257; HT-29; SNB-75; HOP-92; TK-10.
What all share (assay): inhibition of tumour cell growth, NCI panel, 48 h

As to `CCOC(=O)C(NC(=O)CC)(Nc1ccc(S(=O)(=O)Nc2ncccn2)cc1)C(F)(F)F` (stereo not drawn), the GI50 in the test on KM12, with MDA-N, in the test with MDA-MB-231, in the test with MCF7, with OVCAR-8 and in the test on HOP-62 was > 100 µM (inactive) throughout. In addition, the GI50 in the test with OVCAR-3, in the test on SK-OV-3, in the test on Hs-578T, in the test with CAKI-1, in the test with HCT-116 and in the test with SF-539 was > 100 µM (inactive) in each case. For the same compound, the GI50 with SK-MEL-28, in the test with NCI-H23, with SNB-19, in the test with UACC-257, in the test with HT-29 and with SNB-75 was > 100 µM (inactive) in each case. Besides, the GI50 in the test with HOP-92 was > 100 µM (inactive).

`Cc1ccc(C2=Nn3c(nc4sc5c(c4c3=O)CCCC5)SC2)cc1`: the GI50 in the test on KM12, in the test on MDA-N, with MDA-MB-231, with MCF7, in the test on OVCAR-8 and in the test on HOP-62 was > 100 µM (inactive) throughout. Also, the GI50 is > 100 µM (inactive) in the test on TK-10; > 100 µM (inactive) in the test with OVCAR-3; > 100 µM (inactive) with SK-OV-3; 35.7 µM (inactive) with Hs-578T; > 100 µM (inactive) in the test on CAKI-1; > 100 µM (inactive) with HCT-116. Further, the GI50 was > 100 µM (inactive) in the test on SF-539; > 100 µM (inactive) with SK-MEL-28; > 100 µM (inactive) with NCI-H23; > 100 µM (inactive) in the test on UACC-257; > 100 µM (inactive) in the test on HT-29; 96.4 µM (inactive) in the test on SNB-75. In addition, the GI50 in the test on HOP-92 was > 100 µM (inactive).

Consider `Cc1cc(NC(=O)NC(=O)c2ccccc2N)ccc1Oc1ncc(Br)cn1`, for which the GI50 with KM12 was < 0.0105 µM (active); with MDA-N, < 0.01 µM (active); in the test on MDA-MB-231, < 0.01 µM (active); with MCF7, < 0.01 µM (active); in the test on OVCAR-8 it was 0.0217 µM (active); with HOP-62, 0.0118 µM (active). Moreover, the GI50 with TK-10 is 0.239 µM (active); with OVCAR-3, < 0.01 µM (active); with SK-OV-3 it was 0.0103 µM (active); in the test with Hs-578T it was < 0.01 µM (active); with CAKI-1, < 0.01 µM (active); in the test on HCT-116, < 0.0124 µM (active). Also, the GI50 is < 0.011 µM (active) in the test on SF-539; < 0.01 µM (active) in the test on SK-MEL-28; 0.0125 µM (active) with NCI-H23; < 0.0137 µM (active) in the test on SNB-19; 0.0655 µM (active) in the test with UACC-257; < 0.0103 µM (active) with HT-29. In addition, the GI50 was 0.0117 µM (active) with SNB-75 and 0.0159 µM (active) with HOP-92.

With `CC(=O)C(=[N+]=[N-])C(=O)OC(C)(C)C#N`, the GI50 with KM12, with MDA-N, in the test with MDA-MB-231, in the test with MCF7, in the test on OVCAR-8 and in the test on HOP-62 was > 10 µM (inactive) throughout. Besides, the GI50 with TK-10, in the test with OVCAR-3, in the test on SK-OV-3, in the test on Hs-578T, in the test on CAKI-1 and with HCT-116 was > 10 µM (inactive) each time. The GI50 with SF-539, in the test on SK-MEL-28, in the test with NCI-H23, with SNB-19, with UACC-257 and with HT-29 was > 10 µM (inactive) each time. For the same compound, the GI50 in the test on SNB-75 was 1.48 µM (inactive); with HOP-92, > 10 µM (inactive).

On to `Cc1ncc(-c2nnnn2-c2ccccc2)c(C(=O)O)n1`, for which the GI50 in the test with KM12, in the test with MDA-N, with MDA-MB-231, in the test with MCF7, with OVCAR-8 and in the test with HOP-62 was > 100 µM (inactive) each time. Moreover, the GI50 with TK-10, in the test with OVCAR-3, in the test on SK-OV-3, with Hs-578T, in the test with CAKI-1 and in the test with HCT-116 was > 100 µM (inactive) in each case. In addition, the GI50 in the test with SF-539, in the test on SK-MEL-28, in the test with NCI-H23, with SNB-19, with UACC-257 and in the test on HT-29 was > 100 µM (inactive) throughout. Moreover, the GI50 in the test with SNB-75 and in the test on HOP-92 was > 100 µM (inactive) in each case.

For the compound `COC(=O)C#Cc1ccc([N+](=O)[O-])cc1`, the GI50 in the test on KM12 is 1.8 µM (inactive); with MDA-N it was 2.54 µM (inactive); in the test on MDA-MB-231, 2.09 µM (inactive); in the test with MCF7, 1.91 µM (inactive); in the test with OVCAR-8 it was 2.55 µM (inactive); in the test with HOP-62, 2.65 µM (inactive). For the same compound, the GI50 in the test on TK-10 was 1.89 µM (inactive); in the test with OVCAR-3, 1.59 µM (inactive); with SK-OV-3, 8.32 µM (inactive); with Hs-578T, 2.84 µM (inactive); in the test with CAKI-1 it was 1.38 µM (inactive); with HCT-116, 1.15 µM (inactive). The GI50 in the test on SF-539 is 1.69 µM (inactive); in the test on SK-MEL-28, 1.96 µM (inactive); in the test with NCI-H23 it was 1.62 µM (inactive); with SNB-19, 2.75 µM (inactive); with UACC-257, 2.37 µM (inactive); with HT-29, 1.6 µM (inactive). The results for the GI50 with SNB-75 and in the test on HOP-92 were 3.14 µM (inactive) and 2.05 µM (inactive), respectively.

Turning to `Cc1c(C)c2c(c(N)c1C#N)C(=O)N(N)C2=O`, the GI50 with KM12, in the test on MDA-N, in the test with MDA-MB-231, with MCF7, with OVCAR-8 and in the test with TK-10 was > 100 µM (inactive) throughout. Further, the GI50 was > 100 µM (inactive) with OVCAR-3; > 100 µM (inactive) in the test on SK-OV-3; > 100 µM (inactive) with Hs-578T; > 100 µM (inactive) in the test on CAKI-1; 84.9 µM (inactive) in the test with HCT-116; > 100 µM (inactive) with SF-539. In addition, the GI50 was > 100 µM (inactive) with SK-MEL-28; > 100 µM (inactive) in the test with NCI-H23; > 100 µM (inactive) with SNB-19; > 100 µM (inactive) with UACC-257; > 100 µM (inactive) in the test on HT-29; 47 µM (inactive) in the test on SNB-75. In the test with HOP-92, the GI50 was > 100 µM (inactive).

As to `O=c1cc(NNc2ccccc2F)[nH]c(=O)[nH]1`, the GI50 in the test on KM12 was 15.3 µM (inactive); in the test on MDA-N, 18.5 µM (inactive); in the test on MDA-MB-231, 16.3 µM (inactive); in the test on MCF7, 6.61 µM (inactive); in the test with TK-10 it was 14.4 µM (inactive); in the test with OVCAR-3 it was 17.7 µM (inactive). In addition, the GI50 is 21.1 µM (inactive) in the test on SK-OV-3; 21.9 µM (inactive) in the test on Hs-578T; 13 µM (inactive) in the test with CAKI-1; 16.9 µM (inactive) in the test with HCT-116; 16.8 µM (inactive) in the test with SF-539; 20.5 µM (inactive) with SK-MEL-28. For the same compound, the GI50 was 17.3 µM (inactive) in the test on NCI-H23; > 100 µM (inactive) in the test with SNB-19; 17.7 µM (inactive) with UACC-257; 17.9 µM (inactive) in the test on HT-29; 25.9 µM (inactive) in the test with SNB-75; 15.7 µM (inactive) in the test on HOP-92.

With `CC(C)CC(NP(=O)(O)OC1OC(C)C(O)C(O)C1O)C(=O)NC(Cc1c[nH]c2ccccc12)C(=O)O` (stereo not drawn), the GI50 with KM12, in the test with MDA-N, in the test on MDA-MB-231, with MCF7, in the test on OVCAR-8 and in the test on HOP-62 was > 100 µM (inactive) throughout. The GI50 in the test on OVCAR-3, with SK-OV-3, in the test on Hs-578T, in the test on CAKI-1, in the test on HCT-116 and in the test on SF-539 was > 100 µM (inactive) each time. Besides, the GI50 with SK-MEL-28, with NCI-H23, with SNB-19, in the test on UACC-257, in the test with HT-29 and in the test on SNB-75 was > 100 µM (inactive) throughout. Also, the GI50 in the test on HOP-92 was > 100 µM (inactive).

In the case of `O=c1c2ccccc2nc(N/N=C/c2ccccc2O)n1-c1ccccc1`, the GI50 is 7.64 µM (inactive) in the test with MDA-N; 4.59 µM (inactive) with MDA-MB-231; 3.33 µM (inactive) in the test on MCF7; 1.99 µM (inactive) with OVCAR-8; 5.25 µM (inactive) in the test with HOP-62; 6.43 µM (inactive) in the test on TK-10. Moreover, the GI50 with OVCAR-3 is 3.49 µM (inactive); in the test with SK-OV-3 it was 13.8 µM (inactive); in the test with Hs-578T it was 7.82 µM (inactive); in the test with CAKI-1, 5.62 µM (inactive); with HCT-116 it was 2.88 µM (inactive); in the test on SF-539 it was 5.31 µM (inactive). Also, the GI50 in the test on SK-MEL-28 is 11.4 µM (inactive); in the test on NCI-H23, 6.21 µM (inactive); with SNB-19 it was 56.5 µM (inactive); in the test on UACC-257 it was 5.04 µM (inactive); with HT-29, 4.55 µM (inactive); in the test with SNB-75, 11 µM (inactive). For the same compound, the GI50 in the test with HOP-92 is 13 µM (inactive).
